Measured values: PMC10934098, “Platinum(0)-η^2-1,2-(E)ditosylethene Complexes Bearing Phosphine, Isocyanide and N-Heterocyclic Carbene Ligands: Synthesis and Cytotoxicity towards Ovarian and Breast Cancer Cells” (Molecules, 2024)

How the values were obtained:
[1] = system: A2780 (cisplatin-sensitive ovarian cancer cells); assay: Antiproliferative activity (CellTiter-Glo cytotoxicity assay) on A2780; format: cell-based, human; conditions: 96 h of incubation, stock solutions in DMSO (cisplatin in H2O/NaCl)
Method: (§1) With the aim of exploring the potential anticancer effects of platinum(0)-η^2-1,2-(E)ditosylethene complexes, we exposed a set of three distinct human tumor cell lines (ovarian cancer A2780 and its cisplatin-resistant clone A2780cis, and triple-negative breast cancer MDA-MB-231) to the synthesized compounds and cisplatin (positive control) for a duration of 96 h.
(§2) Two types of ovarian cancer cell lines (A2780 and A2780cis), one breast cancer cell line (MDA-MB-231) and a normal cell line (MRC-5) were cultured following the supplier’s guidelines (Sigma-Aldrich, St. Louis, MO, USA) and maintained at 37 °C in a humidified atmosphere containing 5% CO2. In 96-well plates, 1∙10^3 cancer cells and 8∙10^3 MRC-5 cells were seeded and treated after 24 h with six different concentrations of Pt(0) complexes (0.001, 0.01, 0.1, 1, 10, 100 µM). Stock solutions (10 mM) of all platinum complexes were prepared using DMSO as a solvent. After 96 h of treatment, cell viability was assessed using a CellTiter-Glo assay (Promega, Madison, WI, USA) with Tecan M1000 or SynergyH1 microplate readers (Mennedorf, Switzerland). IC50 values were determined from logistical dose–response curves using GraphPad Prism 8 software. Triplicate measurements were taken to calculate averages, and standard deviations were represented by error bars.

[2] = system: A2780cis (cisplatin-resistant ovarian cancer cells); assay: Antiproliferative activity (CellTiter-Glo cytotoxicity assay) on A2780cis; format: cell-based, human; conditions: 96 h of incubation, stock solutions in DMSO (cisplatin in H2O/NaCl)
Method: as §1, §2

[3] = system: MDA-MB-231 (triple-negative breast cancer cells); assay: Antiproliferative activity (CellTiter-Glo cytotoxicity assay) on MDA-MB-231; format: cell-based, human; conditions: 96 h of incubation; MDA-MB-231 cells; stock solutions in DMSO (cisplatin in H2O/NaCl)
Method: as §1, §2

[4] = system: MRC-5 (normal lung fibroblasts); assay: Antiproliferative activity (CellTiter-Glo cytotoxicity assay) on MRC-5 normal cells; format: cell-based, human; conditions: 96 h of incubation, stock solutions in DMSO (cisplatin in H2O/NaCl)
Method: as §1, §2

[5] = Solubility in DMSO and DMSO/H2O solutions; format: physicochemical
Source text: Therefore, these three platinum derivatives were consequently excluded from biological analyses.

| Solubility [5] | Compound | IC50 [1] [µM] | IC50 [2] [µM] | IC50 [3] [µM] | IC50 [4] [µM] |
| --- | --- | --- | --- | --- | --- |
|  | N.N.[Cl][Pt][Cl] [Cisplatin, reference compound] | 0.19 ± 0.08 | 5.4 ± 0.1 | 6.4 ± 0.5 | 2.9 ± 0.1 |
|  | [(CH3ImCH2Ph)2Pt(η^2-(E)-1,2-ditosylethene)] [Compound 6b] | 1.9 ± 0.3 | 12.91 ± 0.06 | 5.4 ± 0.9 | 61 ± 13 |
|  | [(CyIC)2Pt(η^2-(E)-1,2-ditosylethene)] [Compound 3d] | 1.18 ± 0.09 | 1.4 ± 0.2 | 1.2 ± 0.3 |  |
| low solubility | [(DIC)2Pt(η^2-(E)-1,2-ditosylethene)] [Compound 3a] |  |  |  |  |
|  | [(P(2-furyl)3)2Pt(η^2-(E)-1,2-ditosylethene)] [Compound 2c] | 17.2 ± 0.8 | > 100 | > 100 | > 100 |
|  | [(P(p-F-Ph)3)2Pt(η^2-(E)-1,2-ditosylethene)] [Compound 2b] | > 100 | > 100 | 36 ± 6 | > 100 |
|  | [(P(p-F-Ph)3)(CyIC)Pt(η^2-(E)-1,2-ditosylethene)] [Compound 4h] | 41 ± 10 | > 100 | 37 ± 13 | > 100 |
|  | [(P(p-F-Ph)3)(DIC)Pt(η^2-(E)-1,2-ditosylethene)] [Compound 4b] | 85 ± 23 | > 100 | 30 ± 13 | > 100 |
|  | [(P(p-F-Ph)3)(TIC)Pt(η^2-(E)-1,2-ditosylethene)] [Compound 4f] | > 100 | > 100 | 21 ± 2 | > 100 |
|  | [(P(p-F-Ph)3)(TosMIC)Pt(η^2-(E)-1,2-ditosylethene)] [Compound 4d] | > 100 | > 100 | 0.4 ± 0.1 | 14 ± 1 |
|  | [(PPh3)2Pt(η^2-(E)-1,2-ditosylethene)] [Compound 2a] | 5.5 ± 0.6 | > 100 | 2.6 ± 0.4 | > 100 |
| low solubility | [(PPh3)(CyIC)Pt(η^2-(E)-1,2-ditosylethene)] [Compound 4g] |  |  |  |  |
|  | [(PPh3)(DIC)Pt(η^2-(E)-1,2-ditosylethene)] [Compound 4a] | 35 ± 3 | > 100 | 1.8 ± 0.6 | 59 ± 8 |
|  | [(PPh3)(TosMIC)Pt(η^2-(E)-1,2-ditosylethene)] [Compound 4c] | 55 ± 17 | > 100 | 1 ± 0.8 | 15 ± 3 |
|  | [(TIC)2Pt(η^2-(E)-1,2-ditosylethene)] [Compound 3c] | 2.6 ± 0.3 | 3.1 ± 0.9 | 3.4 ± 0.4 | 3.5 ± 0.1 |
|  | [(TolCH2ImCH2Tol)2Pt(η^2-(E)-1,2-ditosylethene)] [Compound 6a] | 1.6 ± 0.1 | 10 ± 3 | 36 ± 11 | > 100 |
|  | [(TosMIC)2Pt(η^2-(E)-1,2-ditosylethene)] [Compound 3b] | 5.4 ± 0.7 | 11 ± 6 | 5.52 ± 0.03 | 22 ± 6 |

| Compound | Solubility [5] | IC50 [1] [µM] | IC50 [2] [µM] | IC50 [3] [µM] | IC50 [4] [µM] |
| --- | --- | --- | --- | --- | --- |
| [(PPh3)(TIC)Pt(η^2-(E)-1,2-ditosylethene)] [Compound 4e] | low solubility |  |  |  |  |
